Data on 8 compounds can be found in US5315038A, “Microorganism for breaking down moenomycins, a process for the breakdown, and the use of the breakdown products” (Hoechst Aktiengesellschaft, priority 1988, dated 1994).

In assay [1] the test system is Moenomycinase. In words: Moenomycinase activity (activation / inhibition). The assay is classed as biochemical, Bacillus spec. DSM 4675. From the text:
The dissolved enzyme was further purified by chromatography. For anion exchange chromatography, the enzyme was bound to a column of DEAE-52 (Whatman) or MonoQHR-5-5 (Pharmacia) and then eluted with 0.2-1.0M NaCl. Presence of moenomycinase in the fractions was monitored by measuring the conversion of moenomycin A to MC, as described in Example 3, below. Further purification was achieved using hydrophobic chromatography. The enzyme was bound to phenylsepharose (Pharmacia), and was then eluted with 40% methanol. The enzyme was concentrated by ultrafiltration using an ultrafiltration membrane (Millipore) which retains molecules with molecular weights ≥10,000 Dalton.

The target of assay [2] is T1, transglycosylase (Escherichia coli, UniProt P02919). As to the kind of experiment: Another study: inhibition of the transglycosylase reaction, in vitro peptidoglycan synthesis. In kind it is biochemical, E. coli K 12. To be noted: Final Concentration 12.5 μg/l. The method, then:
(§1) The inhibition of the polymerization of the peptidoglycan-sugar chains by the cleavage products was carried out by the assay described by Izaki (J. Biol. Chem. 243, 3180-3192, 1968) using lipid intermediates from the cell membrane of E. coli K 12.
Results of another study of the inhibition of the transglycosylase reaction by moenomycin cleavage products in vitro is shown in the following Table. The values in the Table show the inhibition of peptidoglycan-sugar chain synthesis in vitro. Decahydro MB is an analog of MB that has no double bonds in the alkyl chain.

The subject of another assay is Str. pyogenes 77. As to the kind of experiment: Agar dilution test, Mueller-Hinton agar (minimum inhibitory concentration). In kind it is cell-based. To be noted: Streptococcus pyogenes. Here is the method:
(§2) An agar dilution test with Mueller-Hinton agar was carried out to determine the antibacterial activities (Antibiotics in Laboratory Medicine, V. Lorian, Ed., Baltimore 1986, pages 1-10).
In general terms: In agar dilution, organisms are placed on agar that contains the substance at set levels.

The subject of another assay is Staph. aureus 503. Described as above. The assay is classed as cell-based. To be noted: Staphylococcus aureus. Here is the method: as §2
For the next assay, the system named is E. coli DC2. Described as above. In kind it is cell-based. To be noted: Escherichia coli. Here is the method:
as §2

Assay [3] has as its target T1, transglycosylase. As to the kind of experiment: Transglycosylase assay (Izaki), inhibition of polymerization of the peptidoglycan-sugar chains. In kind it is biochemical, E. coli K 12. Conditions: moenomycin A 20 μg/ml; concentration of MB not stated separately. Here is the method:
as §1

Assay [4] relates to Moenomycinase. In words: Moenomycinase kinetics (Km for substrate). In kind it is biochemical, Bacillus spec. DSM 4675. Conditions: moenomycin A as substrate.
Assay [5] has as its system biosynthesis of the peptidoglycan framework of the bacterial cell wall. To be noted: cited from earlier work.

≈ marks a conversion by molar mass, not a printed value.

T1 sequence (P02919 whole entry): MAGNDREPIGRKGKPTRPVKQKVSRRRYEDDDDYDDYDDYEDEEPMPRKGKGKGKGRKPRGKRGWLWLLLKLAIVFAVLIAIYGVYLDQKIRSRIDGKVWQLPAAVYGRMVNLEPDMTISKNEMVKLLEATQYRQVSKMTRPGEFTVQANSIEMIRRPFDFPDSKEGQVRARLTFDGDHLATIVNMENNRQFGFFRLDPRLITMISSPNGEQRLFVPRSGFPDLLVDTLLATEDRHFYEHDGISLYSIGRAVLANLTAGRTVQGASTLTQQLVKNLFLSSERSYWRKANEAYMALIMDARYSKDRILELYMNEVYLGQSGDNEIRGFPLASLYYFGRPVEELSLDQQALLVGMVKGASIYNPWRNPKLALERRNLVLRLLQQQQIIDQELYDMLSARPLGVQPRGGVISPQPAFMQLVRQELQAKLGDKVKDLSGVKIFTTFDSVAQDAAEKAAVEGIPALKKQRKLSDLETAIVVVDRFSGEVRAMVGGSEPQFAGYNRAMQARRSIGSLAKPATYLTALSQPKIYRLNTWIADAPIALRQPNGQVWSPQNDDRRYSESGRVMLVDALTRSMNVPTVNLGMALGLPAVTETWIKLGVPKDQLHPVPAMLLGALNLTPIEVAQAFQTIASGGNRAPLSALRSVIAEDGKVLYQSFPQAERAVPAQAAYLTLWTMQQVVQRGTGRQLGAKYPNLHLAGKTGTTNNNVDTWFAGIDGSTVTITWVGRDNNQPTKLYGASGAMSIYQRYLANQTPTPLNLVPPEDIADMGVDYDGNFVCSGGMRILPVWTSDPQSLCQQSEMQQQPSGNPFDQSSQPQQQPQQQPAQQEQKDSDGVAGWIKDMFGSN

As to `CC(=O)OCC1=C(C(=O)O)N2C(=O)[C@@H](N)[C@H]2SC1` [7-aminocephalosporin acid (7-ACA), 7-aminocephalosporin acid], the inhibition of moenomycinase entry with Moenomycinase [1] is on record as “inhibited”.

`CC(=O)OCC1=C(C(=O)O)N2C(=O)[C@@H](NC(=O)CCC[C@@H](N)C(=O)O)[C@H]2SC1` [Cephalosporin C]: in the assay on Moenomycinase [1], the inhibition of moenomycinase result is “inhibited”.

As to `CC(C)CCCC(C)CCC(C)CCC(C)(C)CCCCC(C)CCO[C@H](COP(=O)(O)O)C(=O)O` (stereo partly shown) [Decahydro MB], the “% Inhibition of In Vitro Peptidoglycan Synthesis” value (“% Inhibition” for short) on transglycosylase [2] was 28%.

With `O=C(O)CN(CCN(CC(=O)O)CC(=O)O)CC(=O)O` [EDTA], the inhibition of moenomycinase entry with Moenomycinase [1] is listed as “inhibited”.

As for `C=C(CC=C(C)CCC=C(C)C)CCC(C)(C)C=CCCC(C)=CCO[C@H](CO)C(=O)O` [MA], the minimum inhibitory concentration (MIC) with Str. pyogenes 77, in the assay on Staph. aureus 503 and in the assay on E. coli DC2 was > 100 µg/mL each time. The “% Inhibition” value at transglycosylase [2] worked out at 67%.

On to `C=C(CC=C(C)CCC=C(C)C)CCC(C)(C)C=CCCC(C)=CCO[C@H](COP(=O)(O)O)C(=O)O` [MB], for which the “inhibition of the transglycosylase reaction” value against transglycosylase [3] was determined as 32.9%. For the same compound, the minimal inhibitory concentration (MIC) (usually the least concentration at which growth counts as inhibited) was 3.12 µg/mL (≈ 5.93 µM) in the assay with Str. pyogenes 77, 25 µg/mL (≈ 47.5 µM) in the assay with Staph. aureus 503 and > 100 µg/mL in the assay on E. coli DC2. Also, the “% Inhibition” value on transglycosylase [2] is reported as 94%.

`C=C(CC=C(C)CCC=C(C)C)CCC(C)(C)C=CCCC(C)=CCOC(COP(=O)(O)OC1OC(C(N)=O)C(C)(O)C(OC(N)=O)C1OC1OC(COC2OC(CO)C(O)C(O)C2O)C(OC2OC(C)C(OC3OC(C(=O)NC4=C(O)CCC4=O)C(O)C(O)C3O)C(O)C2NC(C)=O)C(O)C1NC(C)=O)C(=O)O` (stereo not shown) [moenomycin A]: the Km (as a rule, the substrate concentration at which the rate is half of its maximum) in the assay with Moenomycinase [4] lay in the range of 4 to 10 mM. Besides, the “inhibition of the biosynthesis of the peptidoglycan framework of the bacterial cell wall” value in assay [5] is recorded as “inhibits”.

For formalin, the inhibition of moenomycinase entry with Moenomycinase [1] is listed as “inhibited”.
